The experiment has as its target T1, Alpha-1B adrenergic receptor (Homo sapiens, UniProt P35368).
T1 sequence (P35368 whole entry): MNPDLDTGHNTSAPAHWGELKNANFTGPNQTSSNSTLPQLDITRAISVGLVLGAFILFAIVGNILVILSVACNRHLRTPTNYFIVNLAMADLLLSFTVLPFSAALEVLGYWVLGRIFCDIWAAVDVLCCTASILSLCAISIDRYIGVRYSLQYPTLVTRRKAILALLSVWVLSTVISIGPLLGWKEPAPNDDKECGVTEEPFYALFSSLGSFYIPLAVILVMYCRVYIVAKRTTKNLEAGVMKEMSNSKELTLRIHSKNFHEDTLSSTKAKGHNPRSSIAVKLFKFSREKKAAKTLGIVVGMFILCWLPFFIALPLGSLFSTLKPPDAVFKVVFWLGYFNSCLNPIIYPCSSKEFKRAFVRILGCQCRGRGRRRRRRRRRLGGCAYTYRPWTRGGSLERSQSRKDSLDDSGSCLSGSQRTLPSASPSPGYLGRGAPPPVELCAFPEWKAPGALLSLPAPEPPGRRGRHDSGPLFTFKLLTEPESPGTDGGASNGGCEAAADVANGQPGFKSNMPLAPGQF
As to the kind of experiment: Binding affinity towards human Alpha-1B adrenergic receptor by the displacement of [3H]prazosin. Background: In a radioligand displacement assay an active substance lowers the binding of a labelled ligand.

What is called Ki is the dissociation constant of the complex between target and ligand, obtained from inhibition or displacement. On to `C1CCCC(NC2=NCCO2)CC1`, for which the Ki is 28.2 µM.

In turn, `C1COC(N2CCOCC2)=N1` registered a Ki of 1000 µM.

As to `c1ccc2c(c1)CCCC2NC1=NCCO1` (stereo unspecified), the Ki stood at 2.45 µM.

On to `c1ccc2c(c1)CCCC2NC1=NCCCO1` (stereo unspecified), for which the Ki turned out to be 6.76 µM.

For `CCC[C@H]1CCCCC1NC1=NCCO1` (stereo partly specified), the Ki was found to be 3.98 µM.

The compound `C1COC(NC(C2CC2)C2CC2)=N1` [CHEBI:8862] gave a Ki of 21.4 µM.
